# Data published in patent US11219611B2 (Ocera Therapeutics, Inc., priority 2015, dated 2022).
# Tests used:
# hepatic encephalopathy = details: cited from earlier work
# [1] = Phase 1 single-dose crossover study in healthy subjects: plasma PAA and PAGN pharmacokinetics
# Method: Plasma samples were analyzed for concentrations of phenylacetic acid (PAA), phenylacetylglutamine (PAGN) and ornithine (ORN) using a validated LC-MS/MS method. All urine samples were analyzed for concentrations of PAGN using a validated LC-MS/MS method.
# Pharmacokinetics: Plasma concentration vs. time profiles of phenylacetate, ornithine, and phenylacetylglutamine following a single oral dose of each of the study drug were analyzed by noncompartmental PK methods. Pharmacokinetic parameters that were determined include Cmax, tmax, AUC0-t, AUC0-∞, C12 and t1/2.
# [2] = Phase 1 study in healthy subjects: urinary excretion of PAGN over 24 hours; assay type: in vivo, human; details: single oral dose; for Percent PAA Dose Excreted over 24 hours: urine as PAGN
# Method: Plasma samples were separated by centrifugation within 1 hour of blood collection and stored at approximately −80° C. until analyzed. The total urine volume for each collection interval were measured and recorded and aliquots of urine were stored at approximately −80° C. until analyzed.
# ammonia = details: clinical study reported by Jalan et al. 2007; cited from earlier work
Compound,"incidence of hepatic encephalopathy events (hepatic encephalopathy; clinical studies, 6 mL twice daily)","efficacy for the treatment of hepatic encephalopathy (hepatic encephalopathy; clinical trials (Rockey et al., Hepatology 2014))",time after dosing at which mean plasma PAGN Cmax occurred ([1]; single oral dose (10 g extended-release formulation or 6 mL RAVICTI)),"mean maximum concentration (Cmax) of plasma PAA ([1]; single oral dose (10 g extended-release formulation or 6 mL RAVICTI, each about 5 g PAA equivalent))",PAA converted to PAGN excretion over 24 hours (conversion efficiency) ([2]; Table 2),Percent PAA Dose Excreted over 24 hours ([2]; mean),Percent PAA Dose Excreted over 24 hours ([2]; median),"Total PAGN Amount Excreted over 24 hours ([2]; urine, mean)","PAA Equivalents Excreted over 24 hours ([2]; urine, median)","Total PAGN Amount Excreted over 24 hours ([2]; urine, median)",ammonia lowering (ammonia)
"O=C(CCCc1ccccc1)OCC(COC(=O)CCCc1ccccc1)OC(=O)CCCc1ccccc1 [RAVICTI®, glycerol phenylbutyrate]",lower the incidence of hepatic encephalopathy events,preliminary efficacy,approximately 5 hours,approximately 10 μg/mL,about 40%,42.7%,42.1%,4.11 G,2.09 G,4.06 G,
L-ornithine phenylacetate,,,,,,,,,,,useful in ammonia lowering
